Data: patent US20210308028A1, “Compositions and Methods for Maintaining and Protecting Tissue Integrity and Barrier Function” (Colgate-Palmolive Company, priority 2020, published 2021)

Legend:
[1] = system: hemolytic activity of P. gingivalis; assay: Hemolytic assay with sheep red blood cells; assay type: cell-based, Porphyromonas gingivalis; conditions: Example 6, FIGS. 37, 40, 43; red blood cells from sheep
Experimental: A hemolytic assay is performed as follows. Fresh sheep red blood cells (Nutri-Bact, Terrebonne, QC, Canada) were harvested from heparinized whole blood by centrifugation (600×g for 5 min), washed three times in phosphate-buffered saline (PBS; pH 7.0), and suspended in PBS to a concentration of 2% (v/v). Equal volumes (1 mL) of red blood cells, P. gingivalis cells (OD660=1.0 in PBS), and two-fold serial dilutions of the Test composition were mixed together. PBS replaced the bacteria in the negative control. Following an incubation at 37° C. for 4 h, the mixtures were incubated at 4° C. for 1 h and were then centrifuged (10 000×g for 5 min) prior to recording the absorbance of the supernatants at 540 nm (A540). 1 ml P. gingivalis+1 ml of red blood cells+1 ml of test compounds used in the hemolysis assay are incubated at 37° C. for to 4 h. All constituents are added at the same time. […]
Fresh sheep red blood cells (Nutri-B act, Terrebonne, QC, Canada) were harvested from heparinized whole blood by centrifugation (600×g for 5 min), washed three times in phosphate-buffered saline (PBS; pH 7.0), and suspended in PBS to a concentration of 2% (v/v). […] Following an incubation at 37° C. for 4 h, the mixtures were incubated at 4° C. for 1 h and were then centrifuged (10 000×g for 5 min) prior to recording the absorbance of the supernatants at 540 nm (A540).

[2] = system: B11 gingival keratinocytes challenged with P. gingivalis; assay type: cell-based, human; conditions: P. gingivalis MOI=10^4; Example 4, FIGS. 15, 18, 21
Experimental: (§1) Tight junction integrity was assessed by determining the trans-epithelial electrical resistance (TER). B11 gingival keratinocytes were seeded onto Costar™ Transwell™ clear polyester membrane inserts (6.5-mm diameter; 0.4-μm pore size; Corning Co., Cambridge, Mass., USA) at 3×10^5 cells per insert. The basolateral and apical compartments were filled with 0.6 mL and 0.1 mL of complete K-SFM, respectively. Following a 72-h incubation, the conditioned medium was replaced with antibiotic-free K-SFM, and the cells were incubated for a further 16 h. The TER values were measured using an Ohm/voltmeter (EVOM2; World Precision Instruments, Sarasota, Fla., USA) at 0, 4, 8, 24, 48, and 72 h. Resistance values were calculated in Ohms (Ω)/cm 2 by multiplying the resistance values by the filter surface area. Results were expressed as percentage of the basal control values measured at time 0 h (100% values) for each condition.

[3] = system: P. gingivalis collagenase; assay: Proteolytic assay: collagen DQ degradation by P. gingivalis culture supernatant; assay type: biochemical, Porphyromonas gingivalis; conditions: Example 6, FIGS. 35, 38, 41; over 5 hours
Experimental: To determine the effects of formulations tested on the proteinase activity of P. gingivalis, a 48-h culture was centrifuged at 10 000×g for 10 min. […] The fluorescence corresponding to collagen degradation was monitored using a Synergy 2 microplate reader, with the excitation and emission wavelengths set at 495 nm and 525 nm, respectively. Test compounds or the fluorescent substrate alone were used as controls. For the proteolytic assay, the following ratio was used: 40% P. gingivalis supernatant+40% test compounds+20% DQ collagen. […]
To determine the effects of the Dual Zinc plus Arginine aqueous solution and dentifrice on the proteinase activity of P. gingivalis, a 48-h culture was centrifuged at 10 000×g for 10 min. Assay mixtures containing equal volumes of P. gingivalis culture supernatant, the fluorescent substrate collagen DQ™ (100 μg/mL; Molecular Probes, Eugene, Oreg., USA), and the Dual Zinc […] The fluorescence corresponding to collagen degradation was monitored using a Synergy 2 microplate reader, with the excitation and emission wavelengths set at 495 nm and 525 nm, respectively. Test compounds or the fluorescent substrate alone were used as controls. Leupeptin (1 μM) was used as a positive inhibitory control.

[4] = system: B11 gingival keratinocytes challenged with P. gingivalis; assay: Paracellular permeability to FITC-dextran with P. gingivalis challenge; assay type: cell-based, human; conditions: P. gingivalis MOI=10^4; over 48 h; FIGS. 16, 19, 22
Experimental: (§2) The ability of test composition samples to enhance epithelial barrier integrity was assessed by monitoring the paracellular transport of FITC-conjugated 4.4-kDa dextran (FD-4; Sigma-Aldrich Canada Ltd.) across the keratinocyte layer. Briefly, B11 cells were cultured on Transwell filters, and FD-4 ([…] in culture medium) was added in the apical compartment in the presence of the test composition under investigation. Fluorescence in the basolateral compartment was measured at 0, 4, 8, 24, and 48 h using a Synergy 2 microplate reader (BioTek Instrument, Winooski, Vt., USA).
(§3) Briefly, B11 cells were cultured on Transwell™ filters, and FD-4 (1 mg/mL in culture medium) was added to the apical compartment in the presence of the test compounds. The presence of FD-4 in the basolateral compartment was determined at 0, 2, 6, 24, and 48 h by measuring the fluorescence (RUF; excitation wavelength 495 nm; emission wavelength 525 nm) using a Synergy 2 microplate reader.

[5] = system: B11 gingival keratinocytes treated with TNF-α; assay: FITC-dextran paracellular transport with TNF-α challenge; assay type: cell-based, human; conditions: Example 5, FIGS. 25, 28, 31, 32; S1: the two higher percentages
Experimental: as §2
(§4) Assays exposed cells to either TNFα only or TNFα+test composition. TNFα is known to cause tissue damage. A stock solution of recombinant TNF-α is prepared in sterile distilled water at 100 μg/ml. Thereafter, dilutions are made in keratinocyte culture medium. First dilution is 1/1000 to obtain 100 ng/ml. TNF-α and the test compounds are added simultaneously.
Gingival keratinocytes were cultured in the apical chamber of Transwell™ inserts as described above. Immediately after adding fluorescein isothiocyanate-conjugated dextran of 4.4 kDa (FD-4; 1 mg/ml in culture medium) to the apical compartment, the formulations under investigation were added in presence of recombinant TNF-α (100 ng/ml). Fluorescence in the basolateral compartment was recorded after 0, 2, 6, 24, and 48 h of incubation using a Synergy 2 microplate reader (BioTek Instruments; Winooski, Vt., USA).

[6] = system: B11 immortalized human gingival keratinocyte cell line; assay: Transepithelial electrical resistance (TER) of gingival keratinocyte barrier; assay type: cell-based; conditions: no challenge; dilutions 1/500, 1/1000, 1/2000 or 0.025-0.2%; multiple time points; FIGS. 6, 9, 12
Experimental: as §1

[7] = system: B11 gingival keratinocytes treated with TNF-α; assay: TER with TNF-α challenge; assay type: cell-based, human; conditions: Example 5, FIGS. 24, 27, 29, 30
Experimental: as §1, §4
Keratinocyte barrier integrity was determined by monitoring transepithelial electrical resistance (TER). Briefly, keratinocytes (3×10^5 cells per insert; 0.1 ml) were seeded in the apical compartment of Costar™ Transwell™ clear polyester membrane inserts (6.5 mm in diameter, 0.4 μm pore size; Corning Co., Cambridge, Mass., USA), while the basolateral compartment was filled with 0.6 ml of culture medium. After 72-h of incubation, the conditioned culture medium was replaced with fresh antibiotic-free K-SFM, and the cells were further incubated for 16 h prior treating the cells. Recombinant human TNF-α (100 ng/ml; AnaSpec, Fremont, USA) and the formulations (final dilutions of 1/500, 1/1000, and 1/2000 (v/v for the aqueous solution; w/v for the dentifrice) under investigation were added to the apical compartment. The TER values were monitored using an ohm/voltmeter (EVOM^2; World Precision Instruments, Sarasota, Fla., USA) after 0, 6, 24, and 48 h of incubation. The TER values in Ohms (Ω)/cm^2 were determined by multiplying the resistance values by the surface area of the membrane filter. Results are expressed as the percentage of the basal control value measured at time 0-h (100% value).

[8] = system: B11 immortalized human gingival keratinocyte cell line; assay: Paracellular permeability to FITC-dextran (FD-4); assay type: cell-based; conditions: no challenge; over 48 h; FIGS. 7, 10, 13
Experimental: as §2, §3

With `O=C([O-])CC(O)(CC(=O)[O-])C(=O)[O-].O=C([O-])CC(O)(CC(=O)[O-])C(=O)[O-].[Zn+2].[Zn+2].[Zn+2]` [zinc citrate] the “inhibition of hemolytic activity of P. gingivalis” value [1] was “inhibited P. gingivalis hemolysis”, the “TER with P. gingivalis challenge” value [2] was “protects tissue integrity from damage by P. gingivalis” and the “inhibition of P. gingivalis collagenase activity” value [3] was “inhibits collagenase activity of P. gingivalis in a dose response manner”. The “paracellular permeability to FITC-dextran with P. gingivalis” value [4] was “decreased with the increase in concentration of zinc citrate”, the “TNFα-induced paracellular permeability to FITC-dextran” value [5] was “protects oral tissue integrity from the deleterious effects caused by the presence of TNFα” and the “TER measured as a percent of the initial value” [6] was “increase in TER values with the increase in sample concentration”. The “TER with TNFα challenge” value [7] was “can prevent tissue from the TNFα induced TER decrease” and the “paracellular permeability to FITC-dextran” value [8] was “decreased with the increase in concentration of zinc citrate”.

`[O]=[Zn]` [zinc oxide] was tested, and the “inhibition of hemolytic activity of P. gingivalis” value [1] was “inhibited P. gingivalis hemolysis”, the “TER with P. gingivalis challenge” value [2] was “protects tissue integrity from damage by P. gingivalis” and the “inhibition of P. gingivalis collagenase activity” value [3] was “inhibits collagenase activity of P. gingivalis in a dose response manner”. The “paracellular permeability to FITC-dextran with P. gingivalis” value [4] was “decreased with the increase in concentration of zinc oxide”, the “TNFα-induced paracellular permeability to FITC-dextran” value [5] was “protects oral tissue integrity from the deleterious effects caused by the presence of TNFα” and the “TER measured as a percent of the initial value” [6] was “increase in TER values with the increase in sample concentration”. The “TER with TNFα challenge” value [7] was “prevented tissue from the TNFα induced TER decrease” and the “paracellular permeability to FITC-dextran” value [8] was “decreased with the increase in concentration of zinc oxide”.
